Key:
Human 5-HT4(d) = biological target: T1, Human 5-HT4(d) (Homo sapiens, UniProt Q13639); test: Agonist-induced cAMP elevation in human 5-HT4(d) transfected HEK293 cells; format: cell-based; settings: for Emax: HEK293, cAMP production normalized to the amount produced by 1,000 nM serotonin; for EC50: cAMP elevation (HTRF), human 5-HT4(d) transfected HEK293 cells
T1 construct: expressed in transfected cells
Description: Human 5-HT4(d) transfected HEK293 cells were established in-house. The cells were grown at 37° C. and 5% CO2 in DMEM supplemented with 10% FCS, 20 mM HEPES (pH 7.4), 200 μg/ml hygromycin B (Gibco), 100 units/ml penicillin and 100 μg/ml streptomycin.
The cells were grown to 60-80% confluence. On the previous day before treatment with compounds dialyzed FCS (Gibco) was substituted for normal and the cells were incubated overnight.
Compounds were prepared in 96-well plates (12.5 μl/well). The cells were harvested with PBS/1 mM EDTA, centrifuged and washed with PBS. At the beginning of the assay, cell pellet was resuspended in DMEM supplemented with 20 mM HEPES, 10 μM pargyline (Sigma) and 1 mM 3-isobutyl-1-methylxanthine (Sigma) at the concentration of 1.6×10^5 cells/ml and left for 15 min at room temperature. The reaction was initiated by addition of the cells into plates (12.5 μl/well). After incubation for 15 min at room temperature, 1% Triton X-100 was added to stop the reaction (25 μl/well) and the plates were left for 30 minutes at room temperature. Homogenous time-resolved fluorescence-based cAMP (Schering) detection was made according to the manufacturer's instruction. ARVOsx multilabel counter (Wallac) was used to measure HTRF (excitation 320 nm, emission 665 nm/620 nm, delay time 50 μs, window time 400 μs).
Data was analyzed based on the ratio of fluorescence intensity of each well at 620 nm and 665 nm followed by cAMP quantification using cAMP standard curve. Enhancement of cAMP production elicited by each compound was normalized to the amount of cAMP produced by 1,000 nM serotonin (Sigma).

T1 sequence (Q13639 1-360 isoform Q13639-3): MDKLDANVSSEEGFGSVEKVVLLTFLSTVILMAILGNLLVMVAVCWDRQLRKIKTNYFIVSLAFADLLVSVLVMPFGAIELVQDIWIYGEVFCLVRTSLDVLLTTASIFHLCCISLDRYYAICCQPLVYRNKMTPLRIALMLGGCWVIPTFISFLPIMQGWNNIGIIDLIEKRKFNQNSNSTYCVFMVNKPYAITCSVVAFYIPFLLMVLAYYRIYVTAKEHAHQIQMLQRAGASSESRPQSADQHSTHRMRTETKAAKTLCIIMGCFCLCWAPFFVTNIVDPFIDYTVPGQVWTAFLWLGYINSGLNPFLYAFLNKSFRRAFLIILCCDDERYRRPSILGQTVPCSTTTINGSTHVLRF

SMILES: O=C(O)C1(CN2CCC(CCOc3noc4cccc(OCC(F)(F)F)c34)CC2)CCOCC1 [Example 7, 4-{[4-(2-{[4-(2,2,2-Trifluoroethoxy)-1,2-benzisoxazol-3-yl]oxy}ethyl)piperidin-1-yl]methyl}tetrahydro-2H-pyran-4-carboxylic acid]
- melting point: 176.6 °C
- Emax (Human 5-HT4(d)): 35%
- EC50 (Human 5-HT4(d)): 48 nM

SMILES: CC(C)COc1cccc2onc(OCC3CCN(CC4(C(=O)O)CCCC4)CC3)c12 [Example 9, 1-[(4-{[(4-Isobutoxy-1,2-benzisoxazol-3-yl)oxy]methyl}piperidin-1-yl)methyl]cyclopentane-carboxylic acid]
- melting point: 156.3 °C
- Emax (Human 5-HT4(d)): 36%
- EC50 (Human 5-HT4(d)): 2.9 nM

SMILES: CC(C)COc1cccc2onc(OCC3CCN(CC4(C(=O)O)CCOCC4)CC3)c12 [Example 10, 4-[(4-{[(4-Isobutoxy-1,2-benzisoxazol-3-yl)oxy]methyl}piperidin-1-yl)methyl]tetrahydro-2H-pyran-4-carboxylic acid]
- melting point: 153.4 °C
- Emax (Human 5-HT4(d)): 45%
- EC50 (Human 5-HT4(d)): 3.1 nM

SMILES: CC(C)COc1cccc2onc(OCC3CCN(CC(C)(C)C(=O)O)CC3)c12 [Example 11, 3-(4-{[(4-Isobutoxy-1,2-benzisoxazol-3-yl)oxy]methyl}piperidin-1-yl)-2,2-dimethylpropanoic acid]
- melting point: 123.7 °C
- Emax (Human 5-HT4(d)): 29%
- EC50 (Human 5-HT4(d)): 1.4 nM

SMILES: CC(C)COc1cccc2onc(OCC3CCN(CC4(C(=O)O)CCC4)CC3)c12 [Example 12, 1-[(4-{[(4-Isobutoxy-1,2-benzisoxazol-3-yl)oxy]methyl}piperidin-1-yl)methyl]cyclobutanecarboxylic acid]
- melting point: 168.8 °C
- Emax (Human 5-HT4(d)): 45%
- EC50 (Human 5-HT4(d)): 2.3 nM

SMILES: CC(C)COc1cccc2onc(OCC3CCN(CCC4(C(=O)O)CCOCC4)CC3)c12 [Example 13, 4-[2-(4-{[(4-Isobutoxy-1,2-benzisoxazol-3-yl)oxy]methyl}piperidin-1-yl)ethyl]tetrahydro-2H-pyran-4-carboxylic acid]
- melting point: 213.8 °C
- Emax (Human 5-HT4(d)): 54%
- EC50 (Human 5-HT4(d)): 2.7 nM

SMILES: CC(C)COc1cccc2onc(OCC3CCN(C[C@H]4CC[C@H](C(=O)O)CC4)CC3)c12 [Example 14, trans-4-[(4-{[(4-Isobutoxy-1,2-benzisoxazol-3-yl)oxy]methyl}piperidin-1-yl)methyl]cyclohexane-carboxylic acid]
- melting point: 103.3 °C
- Emax (Human 5-HT4(d)): 41%
- EC50 (Human 5-HT4(d)): 2 nM

SMILES: CC(C)COc1cccc2onc(OCCC3CCN(CC4(C(=O)O)CCOCC4)CC3)c12 [Example 15, 4-[(4-{2-[(4-isobutoxy-1,2-benzisoxazol-3-yl)oxy]ethyl}piperidin-1-yl)methyl]tetrahydro-2H-pyran-4-carboxylic acid]
- melting point: 117.8 °C
- Emax (Human 5-HT4(d)): 32%
- EC50 (Human 5-HT4(d)): 39 nM

SMILES: CC(C)COc1cccc2onc(NCC3CCN(CC4(C(=O)O)CCOCC4)CC3)c12 [Example 16, 4-[(4-{[(4-Isobutoxy-1,2-benzisoxazol-3-yl)amino]methyl}piperidin-1-yl)methyl]tetrahydro-2H-pyran-4-carboxylic acid]
- melting point: 178.2 °C
- Emax (Human 5-HT4(d)): 55%
- EC50 (Human 5-HT4(d)): 1.6 nM

SMILES: O=C(O)C1(CN2CCC(COc3noc4cccc(OCC5CCC5)c34)CC2)CCCC1 [Example 17, 1-{[4-({[4-(Cyclobutylmethoxy)-1,2-benzisoxazol-3-yl]oxy}methyl)piperidin-1-yl]methyl}cyclo-pentanecarboxylic acid]
- melting point: 173.8 °C
- Emax (Human 5-HT4(d)): 41%
- EC50 (Human 5-HT4(d)): 3.6 nM

SMILES: O=C(O)C1(CN2CCC(COc3noc4cccc(OCC5CCC5)c34)CC2)CCOCC1 [Example 18, 4-{[4-({[4-(Cyclobutylmethoxy)-1,2-benzisoxazol-3-yl]oxy}methyl)piperidin-1-yl]methyl}tetrahydro-2H-pyran-4-carboxylic acid]
- melting point: 175.5 °C
- Emax (Human 5-HT4(d)): 52%
- EC50 (Human 5-HT4(d)): 2 nM

SMILES: CC(C)(CN1CCC(COc2noc3cccc(OCC4CCC4)c23)CC1)C(=O)O [Example 19, 3-[4-({[4-(Cyclobutylmethoxy)-1,2-benzisoxazol-3-yl]oxy}methyl)piperidin-1-yl]-2,2-dimethyl-propanoic acid]
- melting point: 139.8 °C
- Emax (Human 5-HT4(d)): 45%
- EC50 (Human 5-HT4(d)): 0.16 nM

SMILES: O=C(O)C1(CN2CCC(COc3noc4cccc(OCC5CCC5)c34)CC2)CCC1 [Example 20, 1-{[4-({[4-(Cyclobutylmethoxy)-1,2-benzisoxazol-3-yl]oxy}methyl)piperidin-1-yl]methyl}cyclo-butanecarboxylic acid]
- melting point: 176.9 °C
- Emax (Human 5-HT4(d)): 50%
- EC50 (Human 5-HT4(d)): 0.24 nM

SMILES: O=C(O)C1(CCN2CCC(COc3noc4cccc(OCC5CCC5)c34)CC2)CCOCC1 [Example 21, 4-{2-[4-({[4-(cyclobutylmethoxy)-1,2-benzisoxazol-3-yl]oxy}methyl)piperidin-1-yl]ethyl}tetrahydro-2H-pyran-4-carboxylic acid]
- melting point: 223.2 °C
- Emax (Human 5-HT4(d)): 61%
- EC50 (Human 5-HT4(d)): 5.3 nM

SMILES: O=C(O)C1(CN2CCC(COc3noc4cccc(OCC5CCCC5)c34)CC2)CCOCC1 [Example 22, 4-{[4-({[4-(Cyclopentylmethoxy)-1,2-benzisoxazol-3-yl]oxy}methyl)piperidin-1-yl]methyl}tetrahydro-2H-pyran-4-carboxylic acid]
- melting point: 185.6 °C
- Emax (Human 5-HT4(d)): 73%
- EC50 (Human 5-HT4(d)): 4.4 nM

SMILES: O=C(O)C1(CCN2CCC(COc3noc4cccc(OCC5CCCC5)c34)CC2)CCOCC1 [Example 23, 4-{2-[4-({[4-(Cyclopentylmethoxy)-1,2-benzisoxazol-3-yl]oxy}methyl)piperidin-1-yl]ethyl}tetrahydro-2H-pyran-4-carboxylic acid]
- melting point: 212.5 °C
- Emax (Human 5-HT4(d)): 77%
- EC50 (Human 5-HT4(d)): 22 nM

SMILES: O=C(O)C1(CN2CCC(COc3noc4cccc(OC5CCCC5)c34)CC2)CCOCC1 [Example 24, 4-{[4-({[4-(Cyclopentyloxy)-1,2-benzisoxazol-3-yl]oxy}methyl)piperidin-1-yl]methyl}tetrahydro-2H-pyran-4-carboxylic acid]
- melting point: 177.7 °C
- Emax (Human 5-HT4(d)): 52%
- EC50 (Human 5-HT4(d)): 1.4 nM

SMILES: O=C(O)C1(CN2CCC(COc3noc4cccc(OC5CCOCC5)c34)CC2)CCCC1 [Example 28, 1-{[4-({[4-(Tetrahydro-2H-pyran-4-yloxy)-1,2-benzisoxazol-3-yl]oxy}methyl)piperidin-1-yl]methyl}-cyclopentanecarboxylic acid]
- melting point: 172.9 °C
- Emax (Human 5-HT4(d)): 78%
- EC50 (Human 5-HT4(d)): 6.6 nM

SMILES: O=C(O)[C@H]1CC[C@H](CN2CCC(COc3noc4cccc(OC5CCOCC5)c34)CC2)CC1 [Example 29, trans-4-{[4-({[4-(Tetrahydro-2H-pyran-4-yloxy)-1,2-benzisoxazol-3-yl]oxy}methyl)piperidin-1-yl]methyl}cyclohexanecarboxylic acid]
- melting point: 154.6 °C
- Emax (Human 5-HT4(d)): 70%
- EC50 (Human 5-HT4(d)): 11 nM

SMILES: O=C(O)C1(CN2CCC(COc3noc4cccc(OC5CCOCC5)c34)CC2)CCCCC1 [Example 30, 1-{[4-({[4-(Tetrahydro-2H-pyran-4-yloxy)-1,2-benzisoxazol-3-yl]oxy}methyl)piperidin-1-yl]methyl}-cyclohexanecarboxylic acid]
- melting point: 157.1 °C
- Emax (Human 5-HT4(d)): 88%
- EC50 (Human 5-HT4(d)): 19 nM

SMILES: OC1(COc2cccc3onc(OCC4CCN(CC5(O)CCOCC5)CC4)c23)CCCC1 [Example 31, 4-({4-[{(4-[(1-Hydroxycyclopentyl)methoxy]-1,2-benzisoxazol-3-yl}oxy)methyl]piperidin-1-yl}-methyl)tetrahydro-2H-pyran-4-ol]
- melting point: 136.5 °C
- Emax (Human 5-HT4(d)): 31%
- EC50 (Human 5-HT4(d)): 27 nM

SMILES: O=C1CCCC1Oc1cccc2onc(OCC3CCN(CC4(O)CCOCC4)CC3)c12 (stereo not drawn) [Example 38, 2-{[3-({1-[(4-Hydroxytetrahydro-2H-pyran-4-yl)methyl]piperidin-4-yl}methoxy)-1,2-benzisoxazol-4-yl]oxy}cyclopentanone]
- melting point: 133.1 °C
- Emax (Human 5-HT4(d)): 40%
- EC50 (Human 5-HT4(d)): 0.84 nM

SMILES: O=C(O)[C@H]1CC[C@H](CN2CCC(COc3noc4cccc(O[C@H]5CC[C@@H](O)CC5)c34)CC2)CC1 [Example 44, trans-4-({4-[({4-[(cis-4-Hydroxycyclohexyl)oxy]-1,2-benzisoxazol-3-yl}oxy)methyl]piperidin-1-yl}-methyl)cyclohexanecarboxylic acid]
- melting point: 182.7 °C
- Emax (Human 5-HT4(d)): 55%
- EC50 (Human 5-HT4(d)): 2.4 nM

SMILES: O=C(O)C1(CN2CCC(COc3noc4cccc(O[C@H]5CC[C@@H](O)CC5)c34)CC2)CCCC1 [Example 45, 1-({4-[({4-[(cis-4-Hydroxycyclohexyl)oxy]-1,2-benzisoxazol-3-yl}oxy)methyl]piperidin-1-yl}methyl)-cyclopentanecarboxylic acid]
- melting point: 189.6 °C
- Emax (Human 5-HT4(d)): 42%
- EC50 (Human 5-HT4(d)): 3.8 nM
